# From US8829014B2, “Thiazole and thiophene analogues, and their use in treating autoimmune diseases and cancers” (Board of Supervisors of Louisiana State University and …, priority 2006, dated 2014)
# Test system: carageenan-induced edema
# Experiment: Carrageenan-induced rat paw edema test (anti-inflammatory activity)
# Type: in vivo, Sprague-Dawley rats
# Settings: Rattus norvegicus, po, 3 h, carrageenan-induced rat paw edema; defined in Example 397; read-out: % Protection
# Method: Sprague-Dawley rats, male and female, 150-250 g will be used in an edema test. Rats will be deprived of food but not water for 18 hours prior to the experiment. The test compounds will be administered with a blunt-tipped needle orally, 50 mg/kg, as a suspension in 0.1% sodium CMC (carboxymethylcellulose) vehicle. Alternatively, the test compounds will be injected intravenously, subcutaneously, or intraperitoneally. One hour later, 0.1 ml of a 1% carrageenan solution in saline will be injected in the sub-plantar region of the right hind paw of each rat. […] The reading will be repeated 3 hours later. The displacement readings give a measure of carageenan-induced edema. Any reduction in carageenan-induced edema with a test compound, as compared to saline control, is a measure of the anti-inflammatory activity of the test compound. The percentage protection at 50-mg/kg doses was calculated according to the following formula: % Protection=[(Control−Test)/Control]×100%.
# Following treatment, the media from the VSMC and HUVEC incubations were removed, and the amount of lactate dehydrogenase (LDH) released into the medium was determined with a commercial kit and expressed as a % increase over vehicle-treated cells. HPT toxicity was determined by the ethidium homodimer (EthHD) uptake assay. […] The lead compounds were also tested in two pairs of cell lines from the skin or prostate, one tumorigenic and one non-tumorigenic, to test for differing toxicity or heightened sensitivity in the tumorigenic lines. The cells were treated for 48 h with vehicle (0.1% DMSO) or 10 μM of each drug candidate, and the viability of the cells was determined by the MTT assay, expressed as a % decrease in viability compared to vehicle-treated cells. The in vivo inflammation model measured the % inhibition of rat paw edema induced by carageenan injection.
row,Compound,inhibition in vivo at 50 mg/kg
1,"Cc1ccccc1-n1c(-c2sc(Nc3ccc(Cl)cc3)nc2C)nc2ccccc2c1=O [Example 170, 2-[2-(4-Chlorophenylamino)-4-methyl-thiazol-5-yl]-3-o-tolyl-3H-quinazolin-4-one]",45%
2,"CCOC(=O)Nc1nc(C)c(-c2nc3ccccc3c(=O)n2-c2ccc(C)cc2)s1 [Example 190, (4-Methyl-5-(4-oxo-3-p-tolyl-3,4-dihydro-quinazolin-2-yl)-thiazol-2-yl)-carbamic acid ethyl ester]",24%
3,"CCOC(=O)Nc1nc(C)c(-c2nc3ccccc3c(=O)n2-c2ccc(C(C)=O)cc2)s1 [Example 259, (4-Methyl-5-(4-oxo-3-(4-acetyl-phenyl)-3,4-dihydro-quinazolin-2-yl)-thiazol-2-yl)-carbamic acid ethyl ester]",69.7%
4,"Cc1ccccc1-n1c(-c2sc(Nc3ccc(Cl)cc3)nc2-c2ccccc2)nc2ccccc2c1=O [Example 178, 2-[2-(4-Chloro-phenylamino)-4-phenyl-thiazol-5-yl]-3-o-tolyl-3H-quinazolin-4-one]",51%

# Same assay, conditions: Rattus norvegicus, po, 3 h, rat paw edema, 50 mg/kg, reading 3 hours after carrageenan; [(Control−Test)/Control]×100%; read-out: % Protection P
row,Compound,inhibition in vivo at 50 mg/kg
1,"O=C(c1ccccn1)c1sc(N2CCN(C(=O)c3ccco3)CC2)nc1-c1ccco1 [Example 380, {2-[4-(Furan-2-carbonyl)-piperazin-1-yl]-4-furan-2-yl-thiazol-5-yl}-pyridin-2-yl-methanone]",42%
2,"Nc1nc(Nc2ccccc2)sc1C(=O)c1ccc(Cl)cc1Cl [Example 324, (4-Amino-2-phenylamino-thiazol-5-yl)-(2,4-dichloro-phenyl)-methanone]",55%
3,"O=C(c1sc(Nc2ccc(Cl)cc2)nc1-c1ccccc1)c1sc(Nc2ccc(Cl)cc2)nc1-c1ccccc1 [Example 127, Bis-[2-(4-Chloro-phenylamino)-4-phenyl-thiazole-5-yl]-methanone]",43.5%
4,"CC(=O)Nc1ccc(-c2cc(C(=O)c3cc(-c4ccc(NC(C)=O)cc4)c(N4CCOCC4)s3)sc2N2CCOCC2)cc1 [Example 113, N-{4-{5-[4-(4-acetylamino-phenyl)-5-morpholin-4-yl-thiophene-2-carbonyl]-2-morpholin-4-yl-thiophene-3-yl}-phenyl)-acetamide]",45.5%
5,"Cc1cc(-c2sc(Nc3ccc(Cl)cc3)nc2NC(=O)Nc2ccc(F)cc2)ncc1OCC(F)(F)F [Example 361, 1-{2-(4-Chloro-phenylamino)-5-[4-methyl-5-(2,2,2-trifluoro-ethoxy)-pyridin-2-yl]-thiazol-4-yl}-3-(4-fluoro-phenyl)-urea]",77.9%
6,"COc1ccccc1Nc1nc(-c2ccccc2)c(C(=O)c2sc(Nc3ccccc3OC)nc2-c2ccccc2)s1 [Example 391, Bis-[2-(2-methoxy-phenylamino)-4-phenyl-thiazol-5-yl]-methanone]",59%
7,"COc1ccc(C(=O)c2sc(N3CCN(C(=O)c4ccco4)CC3)nc2-c2ccccc2)cc1 [Example 382, {2-[4-(Furan-2-carbonyl)-piperazin-1-yl]-4-phenyl-thiazol-5-yl}-(4-methoxy-phenyl)-methanone]",46%
8,"O=C(c1cc(-c2ccccc2)c(N2CCOCC2)s1)c1ccc(Cl)cc1Cl [Example 46, (2,4-Dichloro-phenyl)-(5-morpholin-4-yl-4-phenyl-thiophene-2-yl)-methanone]",68.3%

# Same assay, conditions: rat paw edema, 50 mg/kg, reading 3 hours after carrageenan; [(Control−Test)/Control]×100%
row,Compound,% Protection P
1,"4-{5-[5-Methyl-5-(2,2,2-trifluoro-ethoxy)-pyridin-2-yl]-3-pyridin-3-yl-thiphen-2-yl}-morpholine [Example 89]",−18.05%
2,"Diphenyl[carbonylbis(4-Benzyl-1,3-thiazole-5,2-diyl)]biscarbamate [Example 395]",66%
3,COc1c(C)cnc(-c2sc(Nc3ccc(Cl)cc3)nc2N)c1C [Example 341],32%
4,"4-[3-Phenyl-5-(4,5,6-trimethoxy-pyridine-2-yl)-thiophen-2-yl]-morpholine [Example 39]",19.65%
